Results from patent US20050276832A1, “Topical compositions and uses thereof for treating aquatic animals subjected to disinfection and vaccination” (Veterquimica Ltda., priority 2004, published 2005).

Test system: Saprolengia sp.
Assay: Antifungal bath treatment of Atlantic salmon infected by Saprolengia sp.
Format: in vivo
Conditions: 1 h baths on Day 1 and Day 7
From the text: Five groups were formed, made up of 30 fish each of the Atlantic salmon species, 40-50 grams, showing clear signs of infection by the fungus Saprolengia sp., confirmed by laboratory tests. One of the groups was preserved as control without treatment, while the four remaining groups were subjected to experimental antifingal treatments. In this way, the groups were set up as follows: • GROUP 1: Without antifungal treatment • GROUP 2: Treated with the antifungal product bronopol, according to recommended dose of 20 ppm • GROUP 3: Treated with the Formulation A, in a dose of 28 ml/70 liters of water • GROUP 4: Treated with the Formulation B, in a dose of 28 ml/70 liters of water • GROUP 5: Treated with the Formulation C, in a dose of 28 ml/70 liters of water
The treatments consisted of the following: on Day 1, the fish were submerged for one hour in a bath with 70 liters of water to which the corresponding formulation had been added. Afterwards, they were transferred to breeding tanks that only contained water and with a standard feeding regime, all under the customary aquarium control that includes controlling the temperature (16-17 degrees C.), dissolved oxygen levels not lower than 7 ppm, and control of nitrites and ammonium. On Day 7, the fish were subjected to a second bath, similar to that of Day 1, to continue their development until 14 days of breeding had been completed, keeping a record of the fish killed due to the effect of the Saprolengia fungus. On Day 15, the fish that survived were harvested and the level of infection by Saprolengia was determined for each fish.
The infection level was classified according to the following scale: • INFECTION GRADE 0: healthy fish, without fungus on the skin • INFECTION GRADE 1: fish having only fungal spots on the skin. • INFECTION GRADE 2: fish with short fungal hypha • INFECTION GRADE 3: fish having necrosis of the tissues • INFECTION GRADE 4: fish with cottony hypha • INFECTION GRADE 5: fish dead due to fungal infection (occurring during the 14 days of breeding) Results

O=[N+]([O-])C(Br)(CO)CO [bromopol, bromo-2-nitropropane-1.3-diol]
fish with grade 5 (death) (30 fish per group, dead due to fungal infection during 14 days of breeding): 50% | fish with grade 1-2 (infection level on Day 15, grade 1 fungal spots, grade 2 short fungal hypha): 40% | fish with grade 0 (healthy) (infection level on Day 15, without fungus on the skin): 10%
